The record followed here is patent US5691361A, “1,4-dihydropyridine derivatives, a process for their preparation and their use for influencing the blood flow” (priority 1995, dated 1997).

As usually defined, the IC50 is the concentration at which inhibition is half-maximal.

One assay deals with rabbit aorta. Nature of the assay: Vasodilatory effect: inhibition of calcium-induced contraction of K+-depolarized isolated rabbit aorta strips. The assay is classed as cell-based, white New Zealand rabbits. The following applies: Oryctolagus cuniculus. On the procedure: (§1) The vasodilatory effects are tested as follows: an isolated aorta of the thorax of white New Zealand rabbits is secured in an organ bath. The contractile activity of the helical throacic aorta strip is recorded after depolarization with Krebs solution without calcium (35 mM, potassium) and addition of external calcium pulses (1.5 mM). The compounds are added in increasing concentrations before calcium is reintroduced.

Assay [1] has as its system left stimulated rabbit atrium / rabbit aorta. As to the kind of experiment: Tissue selectivity: ratio of IC50 in left stimulated isolated rabbit atrium to IC50 in K+-depolarized rabbit aorta. The assay is classed as cell-based. As to conditions: ratio of IC50 in left stimulated rabbit atrium and IC50 in rabbit aorta. On the procedure:
as §1
The electrical stimulation is fixed at 1 Hz. After one hour equilibration the percentage contraction is set at 100%, increased concentrations of the compounds are added to the bath every 15 minutes and the changes in the contractile force are recorded. The IC50 values are calculated by interpolation from the concentration-effect relationship determined in each of the experiments.

In assay [2] the test system is spontaneously hypertensive rats (SHR). As to the kind of experiment: Antihypertensive activity in spontaneously hypertensive rats (systolic blood pressure, tail plethysmography). The assay is classed as in vivo, spontaneously hypertensive rats (SHR) of Okamoto strain. As to conditions: Rattus norvegicus, single oral dose 20 mg/kg, 2 hours after treatment. On the procedure:
The antihypertensive activity of the compounds of the invention is tested in spontaneously hypertensive rats (SHR) of Okamoto strain. Systolic blood pressure is monitored by tail plethysmography. The animals are trained for two weeks for the monitoring process. On the day of the experiment the rats are placed in an oven for two hours at 31°±1° C. and blood pressure is recorded graphically. The measurement recorded is the average of five measurements taken in each case. Only animals with basic values of systolic blood pressure over 170 mm Hg are considered hypertensive. After 24 hours fasting the compound to be tested (20 mg/kg) and/or a carrier (20% PEG 400 in 0.5% aqueous methyl cellulose (10 ml/kg)) is orally administered to the selected hypertensive animals by means of a gastric cannula. The values are expressed in percentage variation 2 hours after treatment.

`CC1=C(C(=O)OCCN2C(=O)c3ccccc3S2(=O)=O)C(c2cccc([N+](=O)[O-])c2)C(C(=O)OC(C)C)=C(C)N1` (stereo not drawn) [Example 3, 2,6-Dimethyl-5-isopropoxycarbonyl-4-(3-nitrophenyl)-1,4-dihydropyridine-3-carboxylic acid-2-[N-(1,2-benzisothiazolyl-3(2H)one-1,1-dioxide)]-ethylester]: the IC50 in the assay with rabbit aorta worked out at 0.27 nM. The “Selectivity index (Atrium/Aorta)” value in assay [1] worked out at 137. Further, the change in vivo at 20 mg/kg in assay [2] turned out to be 19.7%.
Consider `CC1=C(C(=O)OCCN2C(=O)c3ccccc3S2(=O)=O)C(c2cccc(Cl)c2Cl)C(C(=O)OC(C)C)=C(C)N1` (stereo not drawn) [Example 16, 4-(2,3-Dichlorophenyl)-2,6-dimethyl-5-isopropoxycarbonyl-1,4-dihydropyridine-3-carboxyic acid-2-[N-(1,2-benzisothiazolyl-3(2H)one-1,1-dioxide)]-ethylester], for which the half-maximal inhibitory concentration (IC50) in the assay on rabbit aorta worked out at 0.25 nM. For the same compound, in assay [1], the “Selectivity index (Atrium/Aorta)” value is given as 2744. The change in vivo at 20 mg/kg in assay [2] came out at 7.45%.
As for `CCOC(=O)C1=C(C)NC(C)=C(C(=O)OCCN2C(=O)c3ccccc3S2(=O)=O)C1c1ccccc1C(F)(F)F` (stereo not drawn) [Example 17, 2,6-Dimethyl-5-ethoxycarbonyl-4-(2-trifluoromethylphenyl)-1,4-dihydropyridine-3-carboxylic acid-2-[N-(1,2-benzisothiazolyl-3(2H)one-1,1-dioxide)]-ethylester], in the assay with rabbit aorta, the IC50 was 0.49 nM. Besides, in assay [1], the “Selectivity index (Atrium/Aorta)” value came out at 152. In assay [2], the change in vivo at 20 mg/kg was found to be 27.3%.
With `CC1=C(C(=O)OCCN2C(=O)c3ccccc3S2(=O)=O)C(c2ccccc2C(F)(F)F)C(C(=O)OC(C)C)=C(C)N1` (stereo not drawn) [Example 18, 2,6-Dimethyl-5-isopropoxycarbonyl-4-(2-trifluoromethylphenyl)-1,4-dihydropyridine-3-carboxylic acid-2-[N-(1,2-benzisothiazolyl-3(2H)one-1,1-dioxide)]-ethylester], the IC50 with rabbit aorta is 0.98 nM. Also, the “Selectivity index (Atrium/Aorta)” value in assay [1] was 103. In addition, in assay [2], the change in vivo at 20 mg/kg is 37.1%.
Consider `CC1=C(C(=O)OCCCN2C(=O)c3ccccc3S2(=O)=O)C(c2cccc([N+](=O)[O-])c2)C(C(=O)OC(C)C)=C(C)N1` (stereo not drawn) [Example 25, 2,6-Dimethyl-5-isopropoxycarbonyl-4-(3-nitrophenyl)-1,4-dihydropyridine-3-carboxylic acid-3-[N-(1,2-benzisothiazolyl-3(2H)one-1,1-dioxide)]-propylester], for which the 50% inhibitory concentration (IC50) in the assay with rabbit aorta was 1.02 nM. Moreover, the “Selectivity index (Atrium/Aorta)” value in assay [1] turned out to be 205. Also, the change in vivo at 20 mg/kg in assay [2] is -1.01%.
On to `COC(=O)C1=C(C)NC(C)=C(C(=O)OCCCN2C(=O)c3ccccc3S2(=O)=O)C1c1cccc(Cl)c1Cl` (stereo not drawn) [Example 29, 4-(2,3-Dichlorophenyl)-2,6-dimethyl-5-methoxycarbonyl-1,4-dihydropyridine-3-carboxylic acid-3-[N-(1,2-benzisothiazolyl-3(2H)one-1,1-dioxide)]-propylester], for which the concentration for half-maximal inhibition (IC50) in the assay with rabbit aorta was 0.76 nM. Moreover, the “Selectivity index (Atrium/Aorta)” value in assay [1] turned out to be 686. Also, the change in vivo at 20 mg/kg in assay [2] was 35%.
Take `COC(=O)C1=C(C)NC(C)=C(C(=O)OCCCN2C(=O)c3ccccc3S2(=O)=O)C1c1ccccc1Cl` (stereo not drawn) [Example 34, 4-(2-Chlorophenyl)-2,6-dimethyl-5-methoxycarbonyl-1,4-dihydropyridine-3-carboxylic acid-3-[N-(1,2-benzisothiazolyl-3(2H)one-1,1-dioxide)]-propylester]: in the assay on rabbit aorta, the IC50 amounted to 1.82 nM. In addition, the “Selectivity index (Atrium/Aorta)” value in assay [1] came to 77. Besides, the change in vivo at 20 mg/kg in assay [2] was 11.1%.
Taken in the same sequence, the figures for `COC(=O)C1=C(C)NC(C)=C(C(=O)OCCCN2C(=O)c3ccccc3S2(=O)=O)C1c1ccccc1[N+](=O)[O-]` (stereo not drawn) [Example 37, 2,6-Dimethyl-5-methoxycarbonyl-4-(2-nitrophenyl)-1,4-dihydropyridine-3-carboxylic acid-3-[N-(1,2-benzisothiazolyl-3(2H)one-1,1-dioxide)]-propylester] were 1.5 nM, 80 and 6.83%.
Taken in the same sequence, the figures for `CC1=C(C(=O)OCCCN2C(=O)c3ccccc3S2(=O)=O)C(c2ccccc2[N+](=O)[O-])C(C(=O)OC(C)C)=C(C)N1` (stereo not drawn) [Example 39, 2,6-Dimethyl-5-isopropoxycarbonyl-4-(2-nitrophenyl)-1,4-dihydropyridine-3-carboxylic acid-3-[N-(1,2-benzisothiazolyl-3(2H)one-1,1-dioxide)]-propylester] were 1.22 nM, 15 and 3.61%.
In the case of `CCOC(=O)C1=C(C)NC(C)=C(C(=O)OCCCN2C(=O)c3ccccc3S2(=O)=O)C1c1cccc(Cl)c1Cl` (stereo not drawn) [Example 40, 4-(2,3-Dichlorophenyl)-2,6-dimethyl-5-ethoxycarbonyl-1,4-dihydropyridine-3-carboxylic acid-3-[N-(1,2-benzisothiazolyl-3(2H)one-1,1-dioxide)]-propylester], the IC50 in the assay on rabbit aorta amounted to 1.77 nM. The “Selectivity index (Atrium/Aorta)” value in assay [1] came to 200. For the same compound, the change in vivo at 20 mg/kg in assay [2] turned out to be 35.5%.
As for `CC1=C(C(=O)OCCCN2C(=O)c3ccccc3S2(=O)=O)C(c2cccc(Cl)c2Cl)C(C(=O)OC(C)C)=C(C)N1` (stereo not drawn) [Example 42, 4-(2,3-Dichlorophenyl)-2,6-dimethyl-5-isopropoxycarbonyl-1,4-dihydropyridine-3-carboxylic acid-3-[N-(1,2-benzisothiazolyl-3(2H)one-1,1-dioxide)]-propylester], in the assay on rabbit aorta, the IC50 was 2.08 nM. Further, the “Selectivity index (Atrium/Aorta)” value in assay [1] came out at 75. Moreover, the change in vivo at 20 mg/kg in assay [2] turned out to be 10.5%.
As for `CCOC(=O)C1=C(C)NC(C)=C(C(=O)OCCCN2C(=O)c3ccccc3S2(=O)=O)C1c1ccccc1C(F)(F)F` (stereo not drawn) [Example 43, 2,6-Dimethyl-5-ethoxycarbonyl-4-(2-trifluoromethylphenyl)-1,4-dihydropyridine-3-carboxylic acid-3-[N-(1,2-benzisothiazolyl-3(2H)one-1,1-dioxide)]-propylester], the IC50 in the assay on rabbit aorta stood at 0.76 nM. Further, the “Selectivity index (Atrium/Aorta)” value in assay [1] was 163. In assay [2], the change in vivo at 20 mg/kg was found to be 18.6%.
For the compound `COCCOC(=O)C1=C(C)NC(C)=C(C(=O)OCCCN2C(=O)c3ccccc3S2(=O)=O)C1c1ccccc1C(F)(F)F` (stereo not drawn) [Example 45, 2,6-Dimethyl-5-(2-methoxyethoxycarbonyl)-4-(2-trifluoromethylphenyl)-1,4-dihydropyridine-3-carboxylic acid-3-[N-(1,2-benzisothiazolyl-3(2H)one-1,1-dioxide)]-propylester], the IC50 in the assay on rabbit aorta is 1.38 nM. Moreover, the “Selectivity index (Atrium/Aorta)” value in assay [1] came out at 16. The change in vivo at 20 mg/kg in assay [2] is 11%.
With `CC1=C(C(=O)OCCN2C(=O)c3ccccc3S2(=O)=O)C(c2cccc([N+](=O)[O-])c2)C(C(=O)OC(C)(C)C)=C(C)N1` (stereo not drawn) [Example 51], the IC50 in the assay on rabbit aorta was determined as 1.6 nM. Moreover, the “Selectivity index (Atrium/Aorta)” value in assay [1] was 72. For the same compound, the change in vivo at 20 mg/kg in assay [2] was 24.6%.
As to `CC1=C(C(=O)OCCCN2C(=O)c3ccccc3S2(=O)=O)C(c2ccccc2Cl)C(C(=O)OC(C)C)=C(C)N1` (stereo not drawn) [Example 52, 4-(2-Chlorophenyl)-2,6-dimethyl-5-isopropoxycarbonyl-1,4-dihydropyridine-3-carboxylic acid-3-[N-(1,2-benzisothiazolyl-3(2H)one-1,1-dioxide)]-propylester], the IC50 with rabbit aorta came to 1.3 nM. The “Selectivity index (Atrium/Aorta)” value in assay [1] turned out to be 37. Besides, the change in vivo at 20 mg/kg in assay [2] came out at 19.4%.
